In general, melting point refers to the temperature of the solid-liquid transition.

Where two headings read alike, the source gives them in different places.

Here are results for 31 compounds from patent US7019001B2, “Substituted benzothiazole amide derivatives” (Hoffman-La Roche Inc., priority 2001, dated 2006).

Series [1] has as its target T1, human adenosine A2A receptor (Homo sapiens, UniProt P29274).
T1 construct: expressed in transfected cells; host or cells: CHO cells, semliki forest virus expression system; washed membrane pellet used
The series is described as follows: [3H]-SCH-58261 binding assay, human adenosine A2A receptor (CHO cell membranes, SPA). As to the method:
Human Adenosine A2A Receptor
The human adenosine A2A receptor was recombinantly expressed in chinese hamster ovary (CHO) cells using the semliki forest virus expression system. Cells were harvested, washed twice by centrifugation, homogenised and again washed by centrifugation. The final washed membrane pellet was suspended in a Tris (50 mM) buffer containing 120 mM NaCl, 5 mM KCl, 2 mM CaCl2 and 10 mM MgCl2 (pH 7.4) (buffer A). The [^3H]-SCH-58261 (Dionisotti et al., 1997, Br J Pharmacol 121, 353; 1 nM) binding assay was carried out in 96-well plates in the presence of 2.5 μg of membrane protein, 0.5 mg of Ysi-poly-1-lysine SPA beads and 0.1 U adenosine deaminase in a final volume of 200 μl of buffer A. Non-specific binding was defined using xanthine amine congener (XAC; 2 μM). Compounds were tested at 10 concentrations from 10 μM–0.3 nM. All assays were conducted in duplicate and repeated at least two times. Assay plates were incubated for 1 hour at room temperature before centrifugation and then bound ligand determined using a Packard Topcount scintillation counter. IC50 values, the concentration where 50% of the […] binding is displaced, were calculated using a non-linear curve fitting program and Ki values calculated using the Cheng-Prussoff equation.

Where [2] appears, read: displacement of [3H]-SCH-58261 (1 nM), recombinant receptor in CHO membranes, Ki by Cheng-Prussoff equation, read-out: hA2 (pKi) (converted).

T1 sequence (P29274 whole entry): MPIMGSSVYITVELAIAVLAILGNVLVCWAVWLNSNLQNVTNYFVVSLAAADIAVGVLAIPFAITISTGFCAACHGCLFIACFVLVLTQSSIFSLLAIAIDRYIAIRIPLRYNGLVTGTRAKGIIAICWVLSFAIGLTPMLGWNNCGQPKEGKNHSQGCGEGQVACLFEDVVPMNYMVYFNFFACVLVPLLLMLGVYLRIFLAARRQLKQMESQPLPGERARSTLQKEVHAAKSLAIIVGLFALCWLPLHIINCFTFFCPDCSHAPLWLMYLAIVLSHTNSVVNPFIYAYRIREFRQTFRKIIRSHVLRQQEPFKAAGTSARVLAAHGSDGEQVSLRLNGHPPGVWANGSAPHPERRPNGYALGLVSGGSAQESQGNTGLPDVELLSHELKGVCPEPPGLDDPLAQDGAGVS

`COc1ccc(N2CCOCC2)c2sc(NC(=O)N(C)C3CCCCCC3)nc12` [Example 35, 1-Cycloheptyl-3-(4-methoxy-7-morpholin-4-yl-benzothiazol-2-yl)-1-methyl-urea] returned a melting point of 198 to 200 °C. In series [1] (setting [2]), the Ki was 12.6 nM.
The compound `COc1ccc(N2CCOCC2)c2sc(NC(=O)N3CC4CCC3CO4)nc12` (centres unmarked) [Example 30, 2-Oxa-5-aza-bicyclo[2.2.2]octane-5-carboxylic acid (4-methoxy-7-morpholin-4-yl-benzothiazol-2-yl)-amide] yielded a melting point of 164 to 170 °C. Moreover, the Ki in series [1] (setting [2]) is 5.01 nM.
For `COc1ccc(N2CCOCC2)c2sc(NC(=O)N(C)C3CCC(F)(F)CC3)nc12` [Example 24, 1-(4,4-Difluoro-cyclohexyl)-3-(4-methoxy-7-morpholin-4-yl-benzothiazol-2-yl)-1-methyl-urea], the melting point fell in the range of 189 to 192 °C. Moreover, the Ki in series [1] (setting [2]) is 10 nM.
Regarding `COc1ccc(N2CCOCC2)c2sc(NC(=O)N(C)C3CCCCC3)nc12` [Example 9, 1-Cyclohexyl-3-(4-methoxy-7-morpholin-4-yl-benzothiazol-2-yl)-1-methyl-urea], in series [1] (setting [2]), the Ki is 12.6 nM.
Compound `COc1ccc(N2CCOCC2)c2sc(NC(=O)N(C)C3CCOCC3)nc12` [Example 34, 3-(4-Methoxy-7-morpholin-4-yl-benzothiazol-2-yl)-1-methyl-1-(tetrahydro-pyran-4-yl)-urea] displayed a melting point of 240 to 242 °C. Also, the Ki in series [1] (setting [2]) is 15.8 nM.
Regarding `COc1ccc(N2CCOCC2)c2sc(NC(=O)N3CCC4(CCCC4)CC3)nc12` [Example 11, 8-Aza-spiro[4.5]decane-8-carboxylic acid (4-methoxy-7-morpholin-4-yl-benzothiazol-2-yl)-amide], in series [1] (setting [2]), the Ki is 6.31 nM.
The compound `COc1ccc(N2CCOCC2)c2sc(NC(=O)N3[C@@H]4CC[C@H]3C[C@@H](O)C4)nc12` [Example 3, 3-endo-Hydroxy-8-aza-bicyclo[3.2.1]octane-8-carboxylic acid (4-methoxy-7-morpholin-4-yl-benzothiazol-2-yl)-amide] showed a Ki in series [1] of 7.94 nM.
For `COc1ccc(N2CCOCC2)c2sc(NC(=O)N3CCCOCC3)nc12` [Example 28, Oxazepane-4-carboxylic acid (4-methoxy-7-morpholin-4-yl-benzothiazol-2-yl)-amide], the “hA2 (pKi)” value in series [1] (displacement of [3H]-SCH-58261 (1 nM), recombinant receptor in CHO membranes, Ki by Cheng-Prussoff equation) is 7.9.
In turn, `COc1ccc(N2CCOCC2)c2sc(NC(=O)N(C)[C@H]3CC[C@@H](OC)CC3)nc12` [Example 25, (cis)-1-(4-Methoxy-cyclohexyl)-3-(4-methoxy-7-morpholin-4-yl-benzothiazol-2-yl)-1-methyl-urea] displayed a melting point of 198 to 200 °C. Moreover, in series [1] (setting [2]), the Ki was 20 nM.
For `COc1ccc(N2CCCCC2)c2sc(NC(=O)N3CCC4(CCCO4)CC3)nc12` [Example 19, 1-Oxa-8-aza-spiro[4.5]decane-8-carboxylic acid (4-methoxy-7-piperidin-1yl-benzothiazol-2-yl)-amide], the Ki in series [1] (setting [2]) is 3.98 nM.
On the same count and under the same terms, as for `O=C(Nc1nc2c(Cl)ccc(N3CCCCC3)c2s1)N1CCC(Cc2ccccc2)CC1` [Example 22, 4-Benzyl-piperidine-1-carboxylic acid (4-chloro-7-piperidin-1-yl-benzothiazol-2-yl)-amide], the figure is 15.8 nM.
For `COc1ccc(N2CCOCC2)c2sc(NC(=O)N3CC4CC[C@@](C)(C3)C4(C)C)nc12` [Example 26, (1R)-1,8,8-Trimethyl-3-aza-bicyclo[3.2.1]octane-3-carboxylic acid (4-methoxy-7-morpholin-4-yl-benzothiazol-2-yl)-amide], the melting point lay in the range of 185 to 189 °C.
Regarding `COc1ccc(N2CCOCC2)c2sc(NC(=O)N3CCC([C@@H](C)O)CC3)nc12` [Example 14, (R)-4-(1-Hydroxy-ethyl)-piperidine-1-carboxylic acid (4-methoxy-7-morpholin-4-yl-benzothiazol-2-yl)-amide], the Ki in series [1] (setting [2]) is 7.94 nM.
`COc1ccc(N2CCOCC2)c2sc(NC(=O)NC3CCCC3)nc12` [Example 37, 1-Cyclopentyl-3-(4-methoxy-7-morpholin-4-yl-benzothiazol-2-yl)-urea] came in with a melting point of 191 to 194 °C. Moreover, the Ki in series [1] (setting [2]) is 7.94 nM.
Turning to `COc1ccc(N2CCOCC2)c2sc(NC(=O)N3CCC4(CCCO4)CC3)nc12` [Example 13, 1-Oxa-8-aza-spiro[4.5]decane-8-carboxylic acid (4-methoxy-7-morpholin-4-yl-benzothiazol-2-yl)-amide], the Ki in series [1] (setting [2]) is 2.51 nM.
In the case of `COc1ccc(N2CCOCC2)c2sc(NC(=O)N(C)[C@H]3CC[C@@H](F)CC3)nc12` [Example 23, 1-(4cis-Fluoro-cyclohexyl)-3-(4-methoxy-7-morpholin-4-yl-benzothiazol-2-yl)-1-methyl-urea], the melting point fell in the range of 201 to 204 °C. Also, in series [1] (setting [2]), the Ki was 7.94 nM.
On to `COc1ccc(N2CCOCC2)c2sc(NC(=O)N3CCC([C@H](C)O)CC3)nc12` [Example 15, (S)-4-(1-Hydroxy-ethyl)-piperidine-1-carboxylic acid (4-methoxy-7-morpholin-4-yl-benzothiazol-2-yl)-amide], for which, in series [1] (setting [2]), the Ki was 7.94 nM.
Still for that read-out and setting: as for `COc1ccc(N2CCOCC2)c2sc(NC(=O)N3CCC(CO)(Cc4ccccc4)CC3)nc12` [Example 8, 4-Benzyl-4-hydroxymethyl-piperidine-1-carboxylic acid (4-methoxy-7-morpholin-4-yl-benzothiazol-2-yl)-amide], the figure is 3.98 nM.
`COc1ccc(N2CCOCC2)c2sc(NC(=O)N(C)[C@H]3CC[C@H](OC)CC3)nc12` [Example 32, (trans)-1-(4-Methoxy-cyclohexyl)-3-(4-methoxy-7-morpholin-4-yl-benzothiazol-2-yl)-1-methyl-urea] gave a melting point of 211 to 213 °C. The Ki in series [1] (setting [2]) was 25.1 nM.
In the case of `COc1ccc(N2CCOCC2)c2sc(NC(=O)N3C[C@@H]4C[C@H]3CO4)nc12` [Example 1, (1S,4S)-2-Oxa-5-aza-bicyclo[2.2.1]heptane-5-carboxylic acid (4-methoxy-7-morpholin-4-yl-benzothiazol-2-yl)-amide], in series [1] (setting [2]), the Ki was 3.16 nM.
In the case of `COc1ccc(N2CCOCC2)c2sc(NC(=O)NC3CCOCC3)nc12` [Example 2, 1-(4-Methoxy-7-morpholin-4-yl-benzothiazol-2-yl)-3-(tetrahydro-pyran-4-yl)-urea], the Ki in series [1] (setting [2]) was 12.6 nM.
Consider `COc1ccc(N2CCOCC2)c2sc(NC(=O)N3CCC4(CCN(C)C4=O)CC3)nc12` [Example 4, 2-Methyl-1-oxo-2,8-diaza-spiro[4.5]decane-8-carboxylic acid (4-methoxy-7-morpholin-4-yl-benzothiazol-2-yl)-amide], for which the Ki in series [1] (setting [2]) was 6.31 nM.
Take `COc1ccc(N2CCOCC2)c2sc(NC(=O)N3CC4CCC3CC4)nc12` [Example 12, 2-Aza-bicyclo[2.2.2]octane-2-carboxylic acid (4-methoxy-7-morpholin-4-yl-benzothiazol-2-yl)-amide]: the Ki in series [1] (setting [2]) was 2.51 nM.
As for `COc1ccc(N2CCOCC2)c2sc(NC(=O)N(C)C3CCCC3)nc12` [Example 36, 1-Cyclopentyl-3-(4-methoxy-7-morpholin-4-yl-benzothiazol-2-yl)-1-methyl-urea], the melting point lay in the range of 110 to 125 °C. Moreover, the Ki in series [1] (setting [2]) is 7.94 nM.
On to `Cc1ccc(CC2(O)CCN(C(=O)Nc3nc4c(Cl)ccc(N5CCCCC5)c4s3)CC2)cc1` [Example 20, 4-Hydroxy-4-(4-methyl-benzyl)-piperidine-1-carboxylic acid (4-chloro-7-piperidin-1-yl-benzothiazol-2-yl)-amide], for which, in series [1] (setting [2]), the Ki was 3.16 nM.
`COc1ccc(N2CCOCC2)c2sc(NC(=O)N3C[C@@H]4CC[C@H]3C4)nc12` [Example 33, (1S,4R)-2-Aza-bicyclo[2.2.1]heptane-2-carboxylic acid (4-methoxy-7-morpholin-4-yl-benzothiazol-2-yl)-amide] showed a melting point of 149 °C. For the same compound, in series [1] (setting [2]), the Ki is 5.01 nM.
As for `COc1ccc(N2CCOCC2)c2sc(NC(=O)N3CCC4(CCCCC4)CC3)nc12` [Example 10, 3-Aza-spiro[5.5]undecane-3-carboxylic acid (4-methoxy-7-morpholin-4-yl-benzothiazol-2-yl)-amide], in series [1] (setting [2]), the Ki was 10 nM.
With `COc1ccc(N2CCOCC2)c2sc(NC(=O)N3CCC(CNS(C)(=O)=O)CC3)nc12` [Example 16, 4-(Methanesulfonylamino-methyl)-piperidine-1-carboxylic acid (4-methoxy-7-morpholin-4-yl-benzothiazol-2-yl)-amide], the Ki in series [1] (setting [2]) was 15.8 nM.
Turning to `COc1ccc(N2CCOCC2)c2sc(NC(=O)N3CCN(c4ccccc4)CC3)nc12` [Example 7, 4-Phenyl-piperazine-1-carboxylic acid (4-methoxy-7-morpholin-4-yl-benzothiazol-2-yl)-amide], in series [1] (setting [2]), the Ki is 7.94 nM.
In the case of `COc1ccc(N2CCOCC2)c2sc(NC(=O)N3CCC4(CCNC4=O)CC3)nc12` [Example 5, 1-Oxo-2,8-diaza-spiro[4.5]decane-8-carboxylic acid (4-methoxy-7-morpholin-4-yl-benzothiazol-2-yl)-amide], the Ki in series [1] (setting [2]) is 6.31 nM.
On the same count and under the same terms, for `O=C(Nc1nc2c(Cl)ccc(N3CCCCC3)c2s1)NC1CCCCC1` [Example 21, 1-(4-Chloro-7-piperidin-1-yl-benzothiazol-2-yl)-3-cyclohexyl-urea] the value was 2.51 nM.
